Experimental data taken from patent US7390910B2, “Compounds for treating tumors” (priority 2003, dated 2008).

What was measured:
KBV1 = assay: cells; format: cell-based; conditions: for inhibition at 3 µM: KB-V1, 3000 nM; for IC50: 3 days, SRB
Protocol: (§1) Cell Survival Assay: Standard Pharmacological Test Procedure. […] Compounds are incubated with cells for 3 days.

KB cells = assay: cells; format: cell-based; conditions: for IC50: 3 days, SRB; for inhibition at 3 µM: 3000 nM
Protocol: as §1

KB85 = assay: cells; format: cell-based; conditions: for IC50: 3 days, SRB; for inhibition at 3 µM: 3000 nM
Protocol: as §1

[1] = system: bovine microtubule-associated protein (MAP)-rich tubulin; format: biochemical; conditions: 0.3 uM
Summary of the method: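 MAP-rich bovine tubulin at 1.5 mg/ml final was dissolved in cold PEM buffer (80 mM Na-PIPES pH 6.9, 1 mM MgCl2, 1 mM EGTA) with 1 mM GTP, then centrifuged at 12,000×g for 10 min at 4° C. Aliquots of 100 μl were added quickly to a low-volume 96-well plate holding duplicate 10 μl compound samples. Absorbance at 340 nm was read each minute for 60 min at 24° C.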

| Compound | inhibition at 3 µM (KBV1; Homo sapiens) | IC50 (KB cells; Homo sapiens, KB, 72 h) | IC50 (KB85; 72 h) | Tubulin Polym. % inhibition at 0.3 uM [1] | IC50 (KBV1) | IC50 (KB cells) | IC50 (KB85) | IC50 (KBV1; Homo sapiens, KB-V1, 72 h) | KBV1 % inhibition @ 3000 nM (KBV1; 3000 nM) | inhibition at 3 µM (KB cells; Homo sapiens, 72 h) | inhibition at 3 µM (KB85) |
| --- | --- | --- | --- | --- | --- | --- | --- | --- | --- | --- | --- |
| CN[C@H](C(=O)N[C@H](C(=O)N(C)[C@@H](/C=C(\C)C(=O)OCc1ccc(OCc2ccccc2)cc1)C(C)C)C(C)(C)C)C(C)(C)c1ccccc1 [Example 54, N,β,β-trimethyl-L-phenylalanyl-N^1-((1R,2E)-4-{[4-(benzyloxy)benzyl]oxy}-1-isopropyl-3-methyl-4-oxobut-2-enyl)-N^1,3-dimethyl-L-valinamide] | 8% | 136 nM | 846 nM | 55% |  |  |  |  |  |  |  |
| N,β,β-trimethyl-L-phenylalanyl-N^1-{(1S,2E)-4-[(2S)-2-(2-phenethoxycarbonyl)pyrrolidin-1-yl]-1-isopropyl-3-methyl-4-oxobut-2-enyl}-N^1,3-dimethyl-L-valinamid [Example 37] |  |  |  | 86% | 1640 nM | 6.4 nM | 21 nM |  |  |  |  |
| CN[C@H](C(=O)N[C@H](C(=O)N(C)[C@H](/C=C(\C)C(=O)N1CCC[C@@H]1C(=O)O)C(C)C)C(C)(C)C)C(C)(C)c1ccccc1 [Example 43, N,β,β-trimethyl-L-phenylalanyl-N^1-{(1S,2E)-4-[(2R)-2-carboxypyrrolidin-1-yl]-1-isopropyl-3-methyl-4-oxobut-2-enyl}-N^1,3-dimethyl-L-valinamide] | 0% | 515 nM | 1580 nM | 91% |  |  |  |  |  |  |  |
| CN[C@H](C(=O)N[C@H](C(=O)N(C)[C@H](/C=C(\C)C(=O)N1CCCC[C@H]1C(=O)OC)C(C)C)C(C)(C)C)C(C)(C)c1ccccc1 [Example 49, N,β,β-trimethyl-L-phenylalanyl-N^1-{(1S,2E)-1-isopropyl-4-[(2S)-2-(methoxycarbonyl)piperidin-1-yl]-3-methyl-4-oxobut-2-enyl}-N^1,3-dimethyl-L-valinamide] |  | 5.2 nM | 17 nM | 62(2) % |  |  |  | 150 nM |  |  |  |
| CN[C@H](C(=O)N[C@H](C(=O)N(C)[C@H](/C=C(\C)C(=O)N1CC=C[C@H]1C(=O)O)C(C)C)C(C)(C)C)C(C)(C)c1ccccc1 [Example 48, N,β,β-trimethyl-L-phenylalanyl-N^1-{(1S,2E)-4-[(2S)-2-carboxy-2,5-dihydro-1H-pyrrol-1-yl]-1-isopropyl-3-methyl-4-oxobut-2-enyl}-N^1,3-dimethyl-L-valinamide] | 15% | 58 nM | 184 nM | 91(2) % |  |  |  |  |  |  |  |
| CN[C@H](C(=O)N[C@H](C(=O)N(C)[C@H](/C=C(\C)C(=O)NCc1ccc(-c2ccccc2)cc1)C(C)C)C(C)(C)C)C(C)(C)c1ccccc1 [Example 53, N,β,β-trimethyl-L-phenylalanyl-N-1-{(1S,2E)-4-[(1,1′-biphenyl-4-ylmethyl)amino]-1-isopropyl-3-methyl-4-oxobut-2-enyl}-N^1,3-dimethyl-L-valinamide] |  |  |  | 11% |  | 667 nM | 1680 nM |  | 29% |  |  |
| CN[C@H](C(=O)N[C@H](C(=O)N(C)[C@H](/C=C(/C)S(=O)(=O)O)C(C)C)C(C)(C)C)C(C)(C)c1ccccc1 [Example 67, N,β,β-trimethyl-L-phenylalanyl-N^1-[(1S,2Z)-1-isopropyl-3-sulfobut-2-enyl]-N^1,3-dimethyl-L-valinamide] | 0% |  |  | 21% |  |  |  |  |  | 0% | 0% |
| N,β,β-trimethyl-L-phenylalanyl-N^1-[(1S,2E)-1-isopropyl-4-((2S)-2-{(1R,2R)-1-methoxy-2-methyl-3-[(4R,5S)-4-methyl-2-oxo-5-phenyl-1,3-oxazolidin-3-yl]-3-oxopropyl}pyrrolidin-1-yl)-3-methyl-4-oxovalinamide [Example 32] |  |  |  | 99(2) % | 636 nM | 12 nM | 45 nM |  |  |  |  |
| CN[C@H](C(=O)N[C@H](C(=O)N(C)[C@H](/C=C(\C)CO)C(C)C)C(C)(C)C)C(C)(C)c1ccccc1 [Example 81] |  |  |  | 71% | 1590 nM | 454 nM | 447 nM |  |  |  |  |
| CN[C@H](C(=O)N[C@H](C(=O)N(C)[C@H](/C=C(\C)C(=O)N1CCOCC1)C(C)C)C(C)(C)C)C(C)(C)c1cccc(C)c1 [Example 1, N,β,β,3-Tetramethyl-L-phenylalanyl-N^1-[(1S,2E)-1-isopropyl-3-methyl-4-morpholin-4-yl-4-oxobut-2-enyl]-N^1,3-dimethyl-L-valinamide] |  | 19.5 nM | 56 nM | 79% |  |  |  | 1510 nM |  |  |  |
| CN[C@H](C(=O)N[C@H](C(=O)N(C)[C@H](/C=C(\C)C(=O)N1CCOCC1)C(C)C)C(C)(C)C)C(C)(C)c1ccc(C)c(C)c1 [Example 2, N,β,β,3,4-Pentamethyl-L-phenylalanyl-N^1-[(1S,2E)-1-isopropyl-3-methyl-4-morpholin-4-yl-4-oxobut-2-enyl]-N^1,3-dimethyl-L-valinamide] |  | 34 nM | 62 nM | 37% |  |  |  | 162 nM |  |  |  |
| CN[C@H](C(=O)N[C@H](C(=O)N(C)[C@H](/C=C(\C)P(=O)(O)O)C(C)C)C(C)(C)C)C(C)(C)c1ccccc1 [Example 72, N,β,β-trimethyl-L-phenylalanyl-N^1-[(1S,2E)-1-isopropyl-3-phosphonobut-2-enyl]-N^1,3-dimethyl-L-valinamide] | 4% |  |  | 53% |  |  |  |  |  | 0% | 0% |
| CCOP(=O)(OCC)/C(C)=C/[C@H](C(C)C)N(C)C(=O)[C@@H](NC(=O)[C@@H](NC)C(C)(C)c1ccccc1)C(C)(C)C [Example 71, N,β,β-trimethyl-L-phenylalanyl-N^1-[(1S,2E)-3-(diethoxyphosphoryl)-1-isopropyl-but-2-enyl]-N^1,3-dimethyl-L-valinamide] | 0% | 1300 nM | 1750 nM | 64% |  |  |  |  |  |  |  |
| CN[C@H](C(=O)N[C@H](C(=O)N(C)[C@H](/C=C(\C)C(=O)N1CCN(Cc2ccccc2)CC1)C(C)C)C(C)(C)C)C(C)(C)c1cccc(Cl)c1 [Example 16, 3-Chloro-N,β,β-trimethyl-L-phenylalanyl-N^1-[(1S,2E)-4-(4-benzylpiperazin-1-yl)-1-isopropyl-3-methyl-4-oxobut-2-enyl]-N^1,3-dimethyl-L-valinamide] |  | 39 nM | 60 nM | 62% |  |  |  | 803 nM |  |  |  |
| CN[C@@H](C(=O)N[C@H](C(=O)N(C)[C@H](/C=C(\C)C(=O)N1CCN(Cc2ccccc2)CC1)C(C)C)C(C)(C)C)C(C)(C)c1ccc(C)c(C)c1 [Example 13, N,β,β,3,4-Pentamethyl-D-phenylalanyl-N^1-[(1S,2E)-4-(4-benzylpiperazin-1-yl)-1-isopropyl-3-methyl-4-oxobut-2-enyl]-N^1,3-dimethyl-L-valinamide] |  | 172 nM | 352 nM | 11% |  |  |  | 1770 nM |  |  |  |
| CN[C@H](C(=O)N[C@H](C(=O)N(C)[C@H](/C=C1\NC(=O)NC1=O)C(C)C)C(C)(C)C)C(C)(C)c1ccccc1 [Example 85, N,β,β-trimethyl-L-phenylalanyl-N^1-{(1S)-1-[(Z)-(2,5-dioxo-4-imidazolidinylidene)methyl]-2-methylpropyl}-N^1,3-dimethyl-L-valinamide] | 10% | 1070 nM | 1740 nM | 59% |  |  |  |  |  |  |  |
